{"source": "patent US9365618B2", "about": "“Synthetic peptide that induces expression of TNF receptor 2 and use thereof” (TOAGOSEI CO. LTD., priority 2011, dated 2016)", "system": "TNFR2", "assay": "TNFR2 expression-inducing activity against neuroblasts (neuro-2a, fluorescent antibody technique)", "assay_type": "cell-based, mouse", "conditions": "retinoic acid-differentiated neuro-2a cells, peptide 5 μM, two days incubation, control group set as 1", "experimental": "With respect to each sample obtained in Example 1, the TNFR2 expression-inducing activity was tested against neuroblasts. The control group was supplied with no peptides. The test details are described below.\nAs the cells under test, a cell line (neuro-2a) established from a commercial mouse neuroblastoma was used. The cells were cultured beforehand in a DMEM medium (i.e., a Dulbecco MEM (DMEM medium, a Gibco product) containing 10% fetal bovine serum (FBS, a Gibco product), 2 mM of L-glutamine, 50 unit/mL of penicillin, and 50 μg/mL of streptomycin), and the number of cells per well in a 96-hole(well) plate was adjusted to approximately 5×10^3. The volume of the medium here was 100 μL/well. […]\nSubsequently, the stock solution of one of the samples was added to the wells for each sample group to a peptide concentration in each well of 5 μM. […] After samples (synthetic peptides) were added as described above and continuously incubated further for two days, the expression/induction of TNFR1 and TNFR2 was evaluated according to the fluorescent antibody technique in the same manner as Example 2.\nWith the level of TNFR1 expression (i.e. fluorescence intensity) of the control group set as 1, relative values are shown. […] With the level of TNFR2 expression (i.e. fluorescence intensity) of the control group set as 1, relative values are shown.", "note": "Where no end group is shown, it is not given here."}
{"sequence": "KKRTLRKNDRKKR (KKRTLRKNDRKKR-NH2; listed as Homo sapiens) [Sample 17, NoLS of human LIMK2]", "values": [{"measurement": "TNFR2 expression level (relative fluorescence intensity)", "result": "at least 1.9"}]}
